Source: PubChem BioAssay (NCI)
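Five concentrations, 48 hours, 96-well plates. GI50: concentration for 50% inhibition of growth. TGI denotes the concentration required for complete inhibition of growth.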

Legend:
Assay in all cases: growth of human tumour cells (NCI), 48 h
786-0 renal = tested on: 786-0 renal
A498 renal = tested on: A498 renal
A549 NSCLC = tested on: A549 NSCLC
ACHN renal = tested on: ACHN renal
CAKI-1 renal = tested on: CAKI-1 renal
CCRF-CEM leukemia = tested on: CCRF-CEM leukemia
COLO 205 colon = tested on: COLO 205 colon
DU-145 prostate = tested on: DU-145 prostate
EKVX NSCLC = tested on: EKVX NSCLC
HCC-2998 colon = tested on: HCC-2998 colon
HCT-116 colon = tested on: HCT-116 colon
HCT-15 colon = tested on: HCT-15 colon
HL-60(TB) leukemia = tested on: HL-60(TB) leukemia
HOP-62 NSCLC = tested on: HOP-62 NSCLC
HOP-92 NSCLC = tested on: HOP-92 NSCLC
HS 578T breast = tested on: HS 578T breast
HT29 colon = tested on: HT29 colon
IGROV1 ovarian = tested on: IGROV1 ovarian
K-562 leukemia = tested on: K-562 leukemia
KM12 colon = tested on: KM12 colon
LOX IMVI melanoma = tested on: LOX IMVI melanoma
M14 melanoma = tested on: M14 melanoma
MALME-3M melanoma = tested on: MALME-3M melanoma
MCF7 breast = tested on: MCF7 breast
MDA-MB-435 = tested on: MDA-MB-435
MOLT-4 leukemia = tested on: MOLT-4 leukemia
NCI-H226 lung = tested on: NCI-H226 lung
NCI-H23 lung = tested on: NCI-H23 lung
NCI-H460 lung = tested on: NCI-H460 lung
NCI-H522 lung = tested on: NCI-H522 lung
NCI/ADR-RES ovarian = tested on: NCI/ADR-RES ovarian
OVCAR-3 ovarian = tested on: OVCAR-3 ovarian
OVCAR-4 ovarian = tested on: OVCAR-4 ovarian
OVCAR-5 ovarian = tested on: OVCAR-5 ovarian
PC-3 prostate = tested on: PC-3 prostate
RPMI-8226 leukemia = tested on: RPMI-8226 leukemia
RXF 393 renal = tested on: RXF 393 renal
SF-268 CNS = tested on: SF-268 CNS
SF-295 CNS = tested on: SF-295 CNS
SF-539 CNS = tested on: SF-539 CNS
SK-MEL-2 melanoma = tested on: SK-MEL-2 melanoma
SK-MEL-28 melanoma = tested on: SK-MEL-28 melanoma
SK-MEL-5 melanoma = tested on: SK-MEL-5 melanoma
SK-OV-3 ovarian = tested on: SK-OV-3 ovarian
SN12C renal = tested on: SN12C renal
SNB-19 CNS = tested on: SNB-19 CNS
SR leukemia = tested on: SR leukemia
SW-620 colon = tested on: SW-620 colon
T-47D breast = tested on: T-47D breast
TK-10 renal = tested on: TK-10 renal
U251 CNS = tested on: U251 CNS
UACC-257 melanoma = tested on: UACC-257 melanoma
UACC-62 melanoma = tested on: UACC-62 melanoma
UO-31 renal = tested on: UO-31 renal
BT-549 breast = tested on: BT-549 breast
MDA-MB-231 breast = tested on: MDA-MB-231 breast
OVCAR-8 ovarian = tested on: OVCAR-8 ovarian
SNB-75 CNS = tested on: SNB-75 CNS

## C=C[C@@]1(C)CC2CC[C@]3(C)C(C)=CC(=O)CC3[C@]2(C)CC1O (some centres not stated)
786-0 renal
  TGI: > 100 µM
A498 renal
  TGI: > 100 µM
A549 NSCLC
  TGI: > 100 µM
ACHN renal
  TGI: > 100 µM
CAKI-1 renal
  TGI: > 100 µM
CCRF-CEM leukemia
  TGI: > 100 µM
COLO 205 colon
  TGI: > 100 µM
DU-145 prostate
  TGI: > 100 µM
EKVX NSCLC
  TGI: > 100 µM
HCC-2998 colon
  TGI: > 100 µM
HCT-116 colon
  TGI: > 100 µM
HCT-15 colon
  TGI: > 100 µM
HL-60(TB) leukemia
  TGI: 82 µM
HOP-62 NSCLC
  TGI: > 100 µM
HOP-92 NSCLC
  TGI: > 100 µM
HS 578T breast
  TGI: > 100 µM
HT29 colon
  TGI: > 100 µM
IGROV1 ovarian
  TGI: > 100 µM
K-562 leukemia
  TGI: > 100 µM
KM12 colon
  TGI: > 100 µM
LOX IMVI melanoma
  TGI: > 100 µM
M14 melanoma
  TGI: > 100 µM
MALME-3M melanoma
  TGI: > 100 µM
MCF7 breast
  TGI: > 100 µM
MDA-MB-435
  TGI: > 100 µM
MOLT-4 leukemia
  TGI: > 100 µM
NCI-H226 lung
  TGI: > 100 µM
NCI-H23 lung
  TGI: > 100 µM
NCI-H460 lung
  TGI: > 100 µM
NCI-H522 lung
  TGI: 74.4 µM
NCI/ADR-RES ovarian
  TGI: > 100 µM
OVCAR-3 ovarian
  TGI: > 100 µM
OVCAR-4 ovarian
  TGI: > 100 µM
OVCAR-5 ovarian
  TGI: > 100 µM
PC-3 prostate
  TGI: > 100 µM
RPMI-8226 leukemia
  TGI: > 100 µM
RXF 393 renal
  TGI: > 100 µM
SF-268 CNS
  TGI: > 100 µM
SF-295 CNS
  TGI: > 100 µM
SF-539 CNS
  TGI: > 100 µM
SK-MEL-2 melanoma
  TGI: > 100 µM
SK-MEL-28 melanoma
  TGI: > 100 µM
SK-MEL-5 melanoma
  TGI: > 100 µM
SK-OV-3 ovarian
  TGI: > 100 µM
SN12C renal
  TGI: > 100 µM
SNB-19 CNS
  TGI: > 100 µM
SR leukemia
  TGI: > 100 µM
SW-620 colon
  TGI: > 100 µM
T-47D breast
  TGI: > 100 µM
TK-10 renal
  TGI: > 100 µM
U251 CNS
  TGI: > 100 µM
UACC-257 melanoma
  TGI: > 100 µM
UACC-62 melanoma
  TGI: > 100 µM
UO-31 renal
  TGI: > 100 µM

## O=C(N/N=C/c1coc2ccc(Cl)cc2c1=O)c1ccncc1
786-0 renal
  GI50: 55.3 µM
  TGI: > 100 µM
A549 NSCLC
  GI50: 98.2 µM
  TGI: > 100 µM
ACHN renal
  GI50: 29.9 µM
  TGI: > 100 µM
BT-549 breast
  GI50: 71.3 µM
  TGI: > 100 µM
CAKI-1 renal
  GI50: 74.1 µM
  TGI: > 100 µM
CCRF-CEM leukemia
  GI50: 28.1 µM
  TGI: > 100 µM
COLO 205 colon
  GI50: > 100 µM
  TGI: > 100 µM
DU-145 prostate
  GI50: > 100 µM
  TGI: > 100 µM
EKVX NSCLC
  GI50: 44.6 µM
  TGI: > 100 µM
HCC-2998 colon
  GI50: 30.3 µM
  TGI: 72.3 µM
HCT-116 colon
  GI50: 40.3 µM
  TGI: > 100 µM
HCT-15 colon
  GI50: 44.4 µM
  TGI: > 100 µM
HOP-62 NSCLC
  GI50: 39.7 µM
  TGI: > 100 µM
HOP-92 NSCLC
  GI50: 93.8 µM
  TGI: > 100 µM
HS 578T breast
  GI50: 32.6 µM
  TGI: > 100 µM
HT29 colon
  GI50: > 100 µM
  TGI: > 100 µM
IGROV1 ovarian
  GI50: 24.8 µM
  TGI: > 100 µM
K-562 leukemia
  GI50: 9.49 µM
  TGI: 66.9 µM
KM12 colon
  GI50: 58.4 µM
  TGI: > 100 µM
LOX IMVI melanoma
  GI50: 38.6 µM
  TGI: > 100 µM
M14 melanoma
  GI50: 37.5 µM
  TGI: > 100 µM
MCF7 breast
  GI50: 47.2 µM
  TGI: > 100 µM
MDA-MB-231 breast
  GI50: 80.6 µM
  TGI: > 100 µM
MDA-MB-435
  GI50: 73 µM
  TGI: > 100 µM
MOLT-4 leukemia
  GI50: 21.1 µM
  TGI: 71.2 µM
NCI-H226 lung
  GI50: 38.6 µM
  TGI: > 100 µM
NCI-H23 lung
  GI50: 38.8 µM
  TGI: > 100 µM
NCI-H460 lung
  GI50: 68.2 µM
  TGI: > 100 µM
NCI-H522 lung
  GI50: 58.2 µM
  TGI: > 100 µM
NCI/ADR-RES ovarian
  GI50: 35.5 µM
  TGI: > 100 µM
OVCAR-3 ovarian
  GI50: 68.5 µM
  TGI: > 100 µM
OVCAR-4 ovarian
  GI50: > 100 µM
  TGI: > 100 µM
OVCAR-5 ovarian
  GI50: > 100 µM
  TGI: > 100 µM
OVCAR-8 ovarian
  GI50: 35.6 µM
  TGI: > 100 µM
PC-3 prostate
  GI50: 59.1 µM
  TGI: > 100 µM
RPMI-8226 leukemia
  GI50: 16.6 µM
  TGI: > 100 µM
RXF 393 renal
  GI50: 65.9 µM
  TGI: > 100 µM
SF-268 CNS
  GI50: 89.7 µM
  TGI: > 100 µM
SF-295 CNS
  GI50: 50.1 µM
  TGI: > 100 µM
SF-539 CNS
  GI50: 75.9 µM
  TGI: > 100 µM
SK-MEL-2 melanoma
  GI50: 74.3 µM
  TGI: > 100 µM
SK-MEL-28 melanoma
  GI50: > 100 µM
  TGI: > 100 µM
SK-MEL-5 melanoma
  GI50: 44.8 µM
  TGI: > 100 µM
SK-OV-3 ovarian
  GI50: > 100 µM
  TGI: > 100 µM
SN12C renal
  GI50: 43.2 µM
  TGI: > 100 µM
SNB-19 CNS
  GI50: > 100 µM
  TGI: > 100 µM
SNB-75 CNS
  GI50: 49.4 µM
  TGI: > 100 µM
SW-620 colon
  GI50: > 100 µM
  TGI: > 100 µM
T-47D breast
  GI50: > 100 µM
  TGI: > 100 µM
TK-10 renal
  GI50: 17.2 µM
  TGI: 52.5 µM
U251 CNS
  GI50: 39.7 µM
  TGI: > 100 µM
UACC-257 melanoma
  GI50: 56.8 µM
  TGI: > 100 µM
UACC-62 melanoma
  GI50: 46.5 µM
  TGI: > 100 µM
UO-31 renal
  GI50: 58.4 µM
  TGI: > 100 µM
